From patent US11207289B2, “Use of benzofuran lignans to induce IL-25 expression and suppress mammary tumor metastasis” (ACADEMIA SINICA, priority 2016, dated 2021)

Tests used:
MCF-7 cells = conditions: cited from earlier work
MDA-MB-231 cells = assay: MTT assay, cytotoxic effect on MDA-MB-231; type: cell-based, human
Method: M10, WI38, SKBR3, and MDA-MB-231 cells (1×10^5 cells/ml) dispensed in 96-well plates were incubated with vehicle or test compounds (Q2-3) for 24 h or 72 h in corresponding basal medium in a 5% CO2 incubator. To evaluate the effect of secreted IL-25 from Q2-3-treated fibroblasts on growth activity of mammary tumor cells, 4T1 and MDA-MB-231 cells (1×10^4 cells/ml) dispensed in 96-well plates were incubated with control medium or different fibroblast conditioned media (200 μl/ml) which was changed daily for 5 days. All treatments were performed in triplicate cell cultures. The growth activity of cells was assayed using a 3-(4, 5-dimethythiazol-2-yl)-2, 5-diphenyl tetrazolium bromide (MTT; Sigma-Aldrich) colorimetric method. The absorbance at 570 nm (A570) was measured using a multiwall scanning spectrophotometer.
FIG. 1 is a schematic depiction of cytotoxic effects of dihydrobenzofuran lignan (Q2-3) on breast tumor cells. (a): Scheme for synthesis of Q2-3 (methyl (E)-3-[2-(3,4-dihydroxyphenyl)-7-hydroxy-3-methoxycarbonyl-2,3-dihydro-1-benzofuran-5yl]prop-2-enoate) from two caffeic acid methyl ester molecules. (b) and (c): MTT assays for cytotoxic effect of Q2-3 on SKBR3 (ER^−Her^+ human breast cancer cell line), MDA-MB-231 (ER^−Her^− human breast cancer cell line), M10 (human normal epithelial cell line) and WI38 (human lung fibroblast cell line). 2×10^4 cells were seeded and compared for their growth activity after treatment with Q2-3 for 24 or 72 h. The beginning cytotoxic dosage of Q2-3 was detected at 0.3 μM, with >50% kill rate on SKBR3 and MDA-MB-231 cells.
The effects of Q2-3 on cell viability were tested on four different cell lines, i.e., normal human mammary epithelial (M10), normal human […] (WI38), and two human mammary tumor cells (SKBR3 and MDA-MB-231), by treating cells with Q2-3 at various concentrations for 24 h (FIG. 1b) and 72 h (FIG. 1c).

mouse IL-25 = assay: 3-D culture, western blot of IL-25 in 3T3 fibroblasts and 3T3-CM; type: cell-based
Method: To mimic the tumor microenvironment, a 3-dimensional (3-D) co-culture system was employed for the maintenance of mammary tumor cells and tumor-associated fibroblasts in adjacent collagen gels as reported in Rajan et al., Nature protocols, 1, 2753-2758 (2006). More specifically, rat tail collagen solution dissolved in acetic acid was neutralized by 1 N NaOH and then mixed with 10×PBS at 4° C. in a ratio of 9:1. To construct solid tumor-like cell mass, mouse (4T1 or TS/A cells) or human (MCF-7 or MDA-MB-231 cells) mammary tumor cells in each correspondent culture medium (1×10^6 cells/ml) were mixed with 4 mg/ml collagen solution in a ratio of 1:1. Four drops of collagen-tumor cell mixture ([…]) were immediately and separately loaded on culture substratum in each well of a 6-well plate. The plates were then turned-over and kept in CO2 incubator at 37° C. for collagen gelation. […]
To pull down and deplete IL-25 protein molecules in 3T3 or MDA-MB-231 cell conditioned media, the Dynabeads antibody coupling kit (Life Technology; 14311D) was used according to the manufacturer's recommendations, yielding 10 mg/ml anti-IL25 antibody (ProteinTech, Chicago, Ill.)-coupled beads. […] The antibody-pulled down proteins from 3T3-CM, NHDF-CM or WI38-CM, were detected for the content of secreted IL-25 protein in each conditioned medium using western blot analysis. […]

COC(=O)/C=C/c1cc(O)c2c(c1)C(C(=O)OC)C(c1ccc(O)c(O)c1)O2 (stereo not drawn) [Q2-3, methyl(E)-3-[2-(3,4-dihydroxyphenyl)-7-hydroxy-3-methoxycarbonyl-2,3-dihydro-1-benzofuran-5yl]-prop-2-enoate]
anti-proliferation effect (MCF-7 cells): significant anti-proliferation effect
inhibition at 0.5 µM (MDA-MB-231 cells; Homo sapiens, ≥0.5 μM, 24 h and 72 h, vs 0.1% DMSO control, read-out: growth inhibition): ≥ 60%
kill rate (MDA-MB-231 cells; at 0.3 μM): > 50%
beginning cytotoxic dosage (MDA-MB-231 cells; treatment 24 or 72 h): 0.3 µM
expression of IL-25 in mouse (3T3) fibroblasts (mouse IL-25; 3-D culture, treatment 24 h or 72 h): increased
level of secreted IL-25 in fibroblast-conditioned medium vs untreated (mouse IL-25; 3T3-CM): significantly higher
